In data set [1] the test system is E. faecalis, E. coli, S. aureus, L. monocytogenes and C. albicans. Kind of data set: Flow cytometry of damaged microorganisms (increased autofluorescence / reduced forward scatter). It counts as cell-based. The following applies: 25 or 50 μg/ml, 6 h bacteria, 20 h C. albicans. As for the experimental part:
Enterococcus faecalis (ATCC 29212), Listeria monocytogenes (VA 15110/93), Escherichia coli (DH5α) and Staphylococcus aureus (ATCC 25923) were grown aerobically on blood agar plates. Candida albicans (ATCC 10231) was plated on Sabouraud dextrose agar plates. E. coli, S. aureus and C. albicans were cultured at 37 °C; E. faecalis and L. monocytogenes were cultured at 37 °C with an additional 5% CO2. Before the experiments, the organisms were subcultured to generate mid-logarithmic growth cultures for use as inoculates. Colonies from the agar were transferred using a sterile loop to Mueller-Hinton broth (Roth, Karlsruhe, Germany) and incubated for 100 min at 39 °C to achieve a McFarland density of 0.5. The C. albicans and bacterial inocula were normalized in Mueller-Hinton broth to 5 × 10^5 cells/ml immediately before use. For the experiments, an inoculum of 5 × 10^5 cells/ml was dispensed into 96-well plates containing Mueller-Hinton broth growth medium with Aβ peptides, as indicated below. […]
After 6 h of incubation for bacteria and 20 h for C. albicans, 50 μl of the cell suspension was diluted in 1% paraformaldehyde (Sigma-Aldrich, Munich, Germany) and stained with DAPI (Sigma-Aldrich, Munich, Germany). Flow cytometry analysis was performed using a Gallios Cytometer (Beckman Coulter, Krefeld, Germany), and the results were evaluated using Kaluza® software (Beckman & Coulter, Krefeld, Germany). Experiments were repeated at least three times for each organism, and duplicates were included for each assay condition. Cultures treated with antibiotics, Mueller-Hinton broth without cells and untreated cells served as controls. Viability was assessed based on the increase in autofluorescence and reduction of forward scatter as signs of microbial damage.
Background: In flow cytometry, cells or beads pass a laser one at a time.

The test system of a further data set is C. albicans. The data set can be described thus: Proliferation by turbidimetry at 570 nm. It counts as cell-based, Candida albicans. The following applies: 3.13 or 6.25 μg/ml, 20 h (Fig. 5 legend: 24 h), 37 °C. The procedure: (§1) Enterococcus faecalis (ATCC 29212), Listeria monocytogenes (VA 15110/93), Escherichia coli (DH5α) and Staphylococcus aureus (ATCC 25923) were grown aerobically on blood agar plates. Candida albicans (ATCC 10231) was plated on Sabouraud dextrose agar plates. E. coli, S. aureus and C. albicans were cultured at 37 °C; E. faecalis and L. monocytogenes were cultured at 37 °C with an additional 5% CO2. Before the experiments, the organisms were subcultured to generate mid-logarithmic growth cultures for use as inoculates. Colonies from the agar were transferred using a sterile loop to Mueller-Hinton broth (Roth, Karlsruhe, Germany) and incubated for 100 min at 39 °C to achieve a McFarland density of 0.5. The C. albicans and bacterial inocula were normalized in Mueller-Hinton broth to 5 × 10^5 cells/ml immediately before use. For the experiments, an inoculum of 5 × 10^5 cells/ml was dispensed into 96-well plates containing Mueller-Hinton broth growth medium with Aβ peptides, as indicated below.
An inoculum of 5 × 10^5 cells/ml was dispensed into 96-well plates containing Mueller-Hinton broth growth medium and 3.13 μg/ml or 6.25 μg/ml Aβ-peptides or LL-37 (Anaspec, Fremont, CA, USA). […] The resulting absorbance was measured with a SpectraMax 340 PC 384 microplate reader (Molecular Devices, Biberach, Germany). The proliferation of C. albicans was assessed by measuring turbidity at 570 nm.

Data set [2] relates to E. faecalis. The data set can be described thus: Scanning electron microscopy. The following applies: 50 μg/ml, 6 h. It counts as cell-based, Enterococcus faecalis. An excerpt:
The specimens were attached to aluminum holders and sputtered with platinum in 15-nm layers using a LEICA EM SCD-500 (Leica, Wetzlar, Germany). The surface morphology of the platinum sputter-coated samples was investigated using a JSM 6 610 scanning electron microscope (JEOL, Peabody, MA, USA) at a working distance of 10 mm and an acceleration voltage of 10 kV at room temperature.

Data set [3] concerns E. faecalis, E. coli, S. aureus, L. monocytogenes and C. albicans. Kind of data set: Gram staining, microbial agglutination. It counts as cell-based. The following applies: 50 μg/ml, 6 h (20 h for C. albicans). As for the experimental part: as §1
The same cultures analysed by flow cytometry were used for the gram staining. After incubating the bacteria and C. albicans with the peptides, 10 μl of the cell suspensions were air-dried on microscope slides and flame-fixated. The smears were flooded with crystal violet solution for 2 min. The slides were rinsed and then incubated for 2 min with iodine solution. […]

Data set [4] deals with Candida albicans (ATCC 10231). Kind of data set: Colony forming units after plating Aβ-treated cultures. It counts as cell-based. The conditions noted are these: 50 μg/ml peptide. As for the experimental part:
as §1
(§2) Immediately before the experiments, all peptides were diluted in Mueller-Hinton broth to reach a final concentration of 100 μg/ml.
(§3) The viability of E. faecalis, E. coli and C. albicans was further examined by plating Aβ-treated cultures on agar plates. Cultures of E. coli, E. faecalis and C. albicans were prepared as described above. After incubation with 50 μg/ml Aβ1-40, Aβ1-42 or Aβ3p-42 for 6 h for bacteria and 20 h for C. albicans, the cell suspensions were diluted in Mueller-Hinton broth, and the microbial load was determined using an Eddy Jet Spiral Plater (IUL Instruments, Germany) by depositing 50 μl of sample on a rotating agar plate. Bacteria were grown on Mueller-Hinton agar plates, and C. albicans was grown on Sabouraud dextrose agar plates. After 24 h of incubation, colonies were counted and translated to colony-forming units (CFU)/ml.

The test system of data set [5] is Enterococcus faecalis (ATCC 29212). The description is as above. It counts as cell-based. The conditions noted are these: 50 μg/ml peptide, 6 h, Mueller-Hinton broth, inoculum 5 × 10^5 cells/ml, spiral plated, colonies counted after 24 h. As for the experimental part:
as §1, §2, §3

A further data set relates to Escherichia coli (DH5α). Described as above. It counts as cell-based. The conditions noted are these: 50 μg/ml peptide, 6 h, Mueller-Hinton broth, inoculum 5 × 10^5 cells/ml, spiral plated, colonies counted after 24 h. The procedure:
as §1, §2, §3

In the next data set the test system is S. aureus. Kind of data set: Automated quantification of cell aggregation on immunocytochemistry slides. It counts as cell-based, Staphylococcus aureus. The following applies: 50 μg/ml, 6 h. The procedure: (§4) The immunocytochemistry of E. faecalis and S. aureus was examined using the Gram preparations specified above. To achieve the robust adherence of pathogens on the glass slides during the staining procedure, cells were incubated with 2% paraformaldehyde (Sigma-Aldrich, Munich, Germany) on the slides and air dried for 60 min at room temperature, followed by washing with PBS (Biochrom, Berlin, Germany). […]
(§5) All images were visually quality controlled. […] An automated quantitative phenotypic image analysis was performed using a custom-adapted version of the image analysis software DetecTiff. Pericellular Aβ peptide levels were quantified from the AF488 channel within donut-shaped masks (see Fig. 1B), which were generated from the DAPI channel in a three-step procedure. […] The Aβ peptide level in an individual cell was calculated as the arithmetic mean of all pixel values within the area of a donut-shaped mask and reported as the mean pixel intensity. Cell aggregation was quantified in an automated manner from segmented images of DAPI-stained nuclei by counting the number of bacteria adjacent to a selected individual bacterium within a rectangular 50-pixel[2] region.

Data set [6] deals with surfaces of E. faecalis and S. aureus. The data set can be described thus: Immunocytochemistry (6E10), Aβ peptide bound to microbial surface. It counts as binding. The conditions noted are these: 50 μg/ml, 6 h, 6E10 antibody, mean pixel intensity in donut-shaped masks.
Data set [7] deals with E. faecalis. Kind of data set: Automated quantification of cell aggregation on immunocytochemistry slides. It counts as cell-based, Enterococcus faecalis. The conditions noted are these: 50 μg/ml, 6 h. As for the experimental part:
as §4, §5

Data set [8] can be described thus: Thioflavin T assay of Aβ peptide aggregation. It counts as physicochemical. The conditions noted are these: 160 μg/ml in PBS/0.4% NH4OH, 0.2 mM Thioflavin T, 37 °C, 6 h, Ex 450/Em 484 nm; with heat inactivated E. coli, S. aureus or C. albicans (McFarland 0.5) versus PBS alone or 0.5 μm carboxylated microbeads. As for the experimental part: Thioflavin T was used to monitor the aggregation of Aβ1-42 in the presence of microorganisms. In a black 96-well plate, 160 μg/ml of Aβ1-42 in PBS/0.4% NH4OH were mixed with heat inactivated E. coli, S. aureus or C. albicans at a final density of McFarland 0.5. Leaving away the microorganisms or adding 10 μg/ml carboxylated microbeads (Micromod, Rostock, Germany) with a diameter of 0.5 μm served as control. After adding Thioflavin T (Sigma-Aldrich, Munich, Germany) in final concentration of 0.2 mM, kinetic measurement was performed at 37 °C with excitation at 450 nm and emission at 484 nm in a CLARIOstar® microplate reader (BMG labtech, Ortenberg, Germany). Measurements containing the respective microorganisms but no Aβ1-42 served as blank.

Regarding “Aβ2-40: non-amyloidogenic, N-terminally truncated amyloid-β peptide variant ending at position 40 (Anaspec)”, the “antimicrobial / microbicidal activity by flow cytometry” value (shortened to “antimicrobial / microbicidal activity”) in data set [1] was “No microbicidal activity was observed”. The “proliferation of C. albicans (turbidity)” value in the data set on C. albicans is “miss the cytotoxic effect”. Besides, the “aggregates of bacteria in scanning electron microscopy” value with E. faecalis [2] is “larger aggregates of bacteria that retained their vital morphology”. The “microbial agglutination in Gram stains” value in data set [3] is “Neither Aβ1-40 nor Aβ2-40 induced microbial agglutination”.
For the substance “Aβ1-42: amyloidogenic amyloid-β peptide variant ending at position 42 (Anaspec)”, the “antimicrobial / microbicidal activity” value in data set [1] is given as “exerted antimicrobial activity”. Moreover, the “damaged microorganisms (reduced forward scatter and increased autofluorescence, AF+/FSC−), share of cells” value in data set [1] (DAPI-positive events) is given as “up to 70%”. Further, in data set [4] (20 h (Fig. 5 legend: 24 h), Sabouraud dextrose agar, colonies counted after 24 h), the “reduction of the number of colony forming units” value is on record as 85%. For the same substance, the “reduction of the number of colony forming units compared to untreated cultures” value (in data set [5]; with Escherichia coli (DH5α)) was 50% throughout. Moreover, the “agglutination of bacteria (number of cells around each bacterium)” value with S. aureus and in the data set with E. faecalis [7] was “led to agglutination” each time. For the same substance, the “binding of Aβ peptide to microbial surfaces” value in data set [6] is listed as “bound to microbial surfaces”. Moreover, the “agglutination (aggregation) of the peptide, Thioflavin fluorescence over time” value in data set [8] is recorded as “more rapid increase in Thioflavin fluorescence”.
With “Aβ1-40: non-amyloidogenic amyloid-β peptide variant ending at position 40 (Anaspec)”, in data set [1], the “antimicrobial / microbicidal activity” value is on record as “No microbicidal activity was observed”. Moreover, the “proliferation of C. albicans (turbidity)” value in the data set on C. albicans was “miss the cytotoxic effect”. In data set [4] (20 h), the “antimicrobial effect in culture (colony forming units)” value is recorded as “moderate antimicrobial effect”. The “reduction of the number of colony forming units compared to untreated cultures” value (in data set [5]; with Escherichia coli (DH5α)) was “not reduced” each time. For the same substance, the “agglutination of bacteria (number of cells around each bacterium)” value in the data set on S. aureus and in the data set with E. faecalis [7] was “almost no agglutination” each time. In addition, the “aggregates of bacteria in scanning electron microscopy” value in the data set with E. faecalis [2] is “Only minor aggregates”. Moreover, in data set [3], the “microbial agglutination in Gram stains” value is listed as “Neither Aβ1-40 nor Aβ2-40 induced microbial agglutination”.

The values are drawn from publication PMC5021948, “Amyloidogenic amyloid-β-peptide variants induce microbial agglutination and exert antimicrobial activity” (Scientific Reports, 2016).
